# Assay results taken from ChEMBL document CHEMBL1201862, “PubChem BioAssay data set” (2004).
# Calls of active or inactive are those of the source.
# Columns and labels:
# [1] = inhibitors of intracellular T. cruzi replication, confirmation, NIH3T3 host cells, beta-gal luminescence (AID 2044); type: functional, cell-based;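 further: intracellular parasites grown in NIH/3T3 mouse fibroblasts as host cells; luminescent beta-galactosidase reporter signal from transgenic T. cruzi replicating inside host cells; inhibitors lower the luminescence signal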
# [2] = cytotoxicity toward NIH3T3 fibroblasts, dose response, counter-screen, cell-based, ATP luminescence, mouse fibroblasts (AID 2010); type: functional;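 further: cells exposed to compound for about 90 hours before reading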
# [3] = tested on: Streptococcus sp. 'group A'; test: growth inhibition of control SK(-) GAS strain, dose response, counter-screen for streptokinase expression inhibitor project, luminescence, kanamycin, BacTiterGlo, confirmation (AID 1900); type: functional, organism-based
# Streptokinase A = biological target: T1, Streptokinase A (Streptococcus pyogenes serotype M1, UniProt P10520); test: S. pyogenes streptokinase expression inhibitors, potency, dose response, plasminogen activation absorbance, OD405 (AID 1914); type: functional, Streptococcus pyogenes M1 GAS;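 further: secreted streptokinase activity via plasminogen activation per viability signal from cell pellet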
# T1 sequence (P10520 whole entry): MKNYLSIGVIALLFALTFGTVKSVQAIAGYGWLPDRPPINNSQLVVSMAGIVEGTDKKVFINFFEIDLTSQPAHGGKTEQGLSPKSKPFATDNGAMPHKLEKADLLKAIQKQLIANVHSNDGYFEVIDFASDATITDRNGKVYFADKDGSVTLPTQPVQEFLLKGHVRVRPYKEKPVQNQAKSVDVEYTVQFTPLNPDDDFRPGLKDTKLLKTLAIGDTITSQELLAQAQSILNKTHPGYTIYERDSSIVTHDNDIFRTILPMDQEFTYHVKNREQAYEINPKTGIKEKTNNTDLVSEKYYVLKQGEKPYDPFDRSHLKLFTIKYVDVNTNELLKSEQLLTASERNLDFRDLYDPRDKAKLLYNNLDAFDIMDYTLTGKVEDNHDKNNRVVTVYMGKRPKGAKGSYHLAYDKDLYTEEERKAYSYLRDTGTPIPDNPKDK
# Streptococcus = test: Group A Streptococcus viability loss, dose response, counter-screen for streptokinase expression inhibitor project, luminescence, BacTiterGlo (AID 1915); type: functional, organism-based;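 further: potency for reduction of bacterial viability or growth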
# Cytochrome P450 1A2 = biological target: T2, Cytochrome P450 1A2 (Homo sapiens, UniProt P05177);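 further: PubChem cytochrome P450 panel assay, CYP1A2 panel member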
# T2 sequence (P05177 whole entry): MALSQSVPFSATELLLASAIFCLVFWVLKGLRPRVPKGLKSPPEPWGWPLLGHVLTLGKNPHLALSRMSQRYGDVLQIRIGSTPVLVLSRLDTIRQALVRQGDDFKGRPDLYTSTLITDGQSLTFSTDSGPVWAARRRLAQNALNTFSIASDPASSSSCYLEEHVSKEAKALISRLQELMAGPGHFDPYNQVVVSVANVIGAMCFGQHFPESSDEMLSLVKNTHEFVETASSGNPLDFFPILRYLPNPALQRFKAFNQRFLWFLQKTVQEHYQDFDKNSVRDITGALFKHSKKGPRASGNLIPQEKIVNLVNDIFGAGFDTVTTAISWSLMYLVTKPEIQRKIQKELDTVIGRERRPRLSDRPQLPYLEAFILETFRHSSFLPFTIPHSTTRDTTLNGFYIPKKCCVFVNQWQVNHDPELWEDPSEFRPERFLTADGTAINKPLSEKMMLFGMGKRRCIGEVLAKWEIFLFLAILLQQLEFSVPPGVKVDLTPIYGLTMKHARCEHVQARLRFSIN
# Cytochrome P450 2C9 = Cytochrome P450 2C9 (Homo sapiens, UniProt P11712)
# Sequence of Cytochrome P450 2C9 (P11712 whole entry): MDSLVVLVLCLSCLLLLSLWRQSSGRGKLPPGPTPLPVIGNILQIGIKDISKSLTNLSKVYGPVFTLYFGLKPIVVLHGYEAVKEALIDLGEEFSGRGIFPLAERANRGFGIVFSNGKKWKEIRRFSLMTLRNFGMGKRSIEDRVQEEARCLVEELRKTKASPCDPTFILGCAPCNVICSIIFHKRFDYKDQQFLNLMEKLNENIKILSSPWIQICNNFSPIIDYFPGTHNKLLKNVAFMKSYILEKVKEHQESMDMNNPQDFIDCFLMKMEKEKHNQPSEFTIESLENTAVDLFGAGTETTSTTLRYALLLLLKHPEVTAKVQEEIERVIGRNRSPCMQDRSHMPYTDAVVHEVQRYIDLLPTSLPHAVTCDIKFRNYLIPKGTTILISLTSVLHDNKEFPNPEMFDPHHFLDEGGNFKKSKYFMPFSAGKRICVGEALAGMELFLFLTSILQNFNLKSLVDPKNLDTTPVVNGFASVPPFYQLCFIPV
# Cytochrome P450 2C19 = Cytochrome P450 2C19 (Homo sapiens, UniProt P33261); test: Cytochrome panel assay with activity outcomes. Panel member name: p450-cyp2c19 Compounds with AC50 equal or less than 10 uM are considered active; type: functional
# Sequence of Cytochrome P450 2C19 (P33261 whole entry): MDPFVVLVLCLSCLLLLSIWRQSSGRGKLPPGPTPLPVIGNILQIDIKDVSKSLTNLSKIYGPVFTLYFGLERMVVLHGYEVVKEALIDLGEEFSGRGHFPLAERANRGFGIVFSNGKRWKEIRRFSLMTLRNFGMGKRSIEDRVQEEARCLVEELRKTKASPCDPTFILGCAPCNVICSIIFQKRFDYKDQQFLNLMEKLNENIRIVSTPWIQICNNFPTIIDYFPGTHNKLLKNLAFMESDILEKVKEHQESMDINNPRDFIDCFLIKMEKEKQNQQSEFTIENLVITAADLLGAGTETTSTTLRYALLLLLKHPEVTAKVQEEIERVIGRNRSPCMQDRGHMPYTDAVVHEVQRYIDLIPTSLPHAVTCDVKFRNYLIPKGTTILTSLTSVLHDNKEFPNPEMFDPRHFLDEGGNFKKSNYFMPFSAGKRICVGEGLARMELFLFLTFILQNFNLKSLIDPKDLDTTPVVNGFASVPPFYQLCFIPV
# [4] = biological target: T3, Rac GTPase-activating protein 1 (Homo sapiens, UniProt Q9H0H5); test: MgcRacGAP GTPase-activating activity inhibitors, confirmation, biochemical, ADP Hunter fluorescence, primary and confirmatory (AID 624330); type: functional
# T3 sequence (Q9H0H5 whole entry): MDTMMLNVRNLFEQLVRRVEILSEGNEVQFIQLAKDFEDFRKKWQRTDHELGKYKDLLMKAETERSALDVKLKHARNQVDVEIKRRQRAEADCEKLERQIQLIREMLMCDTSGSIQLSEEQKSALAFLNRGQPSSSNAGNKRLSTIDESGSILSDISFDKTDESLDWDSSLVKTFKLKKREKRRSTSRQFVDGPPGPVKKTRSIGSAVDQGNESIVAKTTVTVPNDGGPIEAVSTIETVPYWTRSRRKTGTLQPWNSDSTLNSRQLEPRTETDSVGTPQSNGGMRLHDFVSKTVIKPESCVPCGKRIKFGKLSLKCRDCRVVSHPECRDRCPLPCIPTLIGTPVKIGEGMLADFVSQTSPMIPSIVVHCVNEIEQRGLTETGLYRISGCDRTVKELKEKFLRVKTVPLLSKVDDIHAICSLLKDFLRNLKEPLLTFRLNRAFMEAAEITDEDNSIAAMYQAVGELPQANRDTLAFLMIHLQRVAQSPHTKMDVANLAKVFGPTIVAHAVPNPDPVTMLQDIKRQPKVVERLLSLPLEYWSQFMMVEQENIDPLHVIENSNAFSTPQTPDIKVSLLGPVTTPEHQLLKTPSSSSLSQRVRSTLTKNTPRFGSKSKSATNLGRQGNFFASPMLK
# [5] = inhibitors of firefly luciferase expression or activity, dose response, H4 neuroglioma cells, luminescence (AID 1990); type: functional, cell-based
# [6] = inhibitors of SNCA 5'UTR-driven reporter translation, confirmation, H4 neuroglioma cells, luminescence (AID 1988); type: functional, cell-based
compound,measurement,setting,value
COc1ccc(C2CC(c3ccccc3)=NN2C(=O)COC(=O)c2cccc(S(=O)(=O)N3CCOCC3)c2)cc1 (centres undefined),EC50,[1],3.37 µM (active)
same,EC50,[2],> 30 µM (not active)
CC(C)C[C@H](NC(=O)c1[nH]cnc1C(=O)N1CCc2ccccc2C1)C(=O)OCc1ccccc1,EC50,[3],9.76 µM (active)
same,EC50,Streptokinase A,> 150 µM (not active)
same,EC50,Streptococcus,> 150 µM (not active)
CC(=O)CSc1nnc(Cc2ccc([N+](=O)[O-])cc2)o1,AC50,Cytochrome P450 1A2,15.8 µM (inconclusive)
same,AC50,Cytochrome P450 2C9,35.5 µM (inconclusive)
CCC(C)(C)n1nnnc1C(c1cccc(C#N)c1)N1CCN(c2cc(C)ccc2C)CC1 (centres undefined),EC50,[1],1.73 µM (active)
same,EC50,[2],32.6 µM (active)
CN(C)C(=O)c1ccc(-c2ccc3ncnc(NC4CCNCC4)c3c2)cc1,AC50,Cytochrome P450 1A2,20 µM (inconclusive)
CN1CCN(c2ncc3nc(-c4ccccc4)c(=O)n(Cc4ccc(F)cc4)c3n2)CC1,AC50,Cytochrome P450 2C19; read-out: AC50,39.8 µM (inconclusive)
Cc1ccc(NCc2ccccc2O)cc1C,IC50,[4],118 µM (active)
CN(C)CCN(C(=O)c1ccc(S(=O)(=O)N2CCCC2)cc1)c1nc2ccc(Br)cc2s1,EC50,[1],0.122 µM (active)
same,EC50,[2],> 30 µM (not active)
CCOC(=O)CSc1nnc(CNC(=O)c2ccc(OC)cc2)n1C1CCCCC1,AC50,Cytochrome P450 2C19; read-out: AC50,10 µM (inconclusive)
same,AC50,Cytochrome P450 1A2,5.01 µM (inconclusive)
Cc1sc2nc(CN3CCOCC3)nc(N3CCOCC3)c2c1C,IC50,[4],191 µM (active)
CC(=O)N(CCC(Cc1ccccc1)c1ccc2c(c1)OCO2)Cc1ccc(Cl)cc1 (centres undefined),EC50,[3],7.09 µM (active)
same,EC50,Streptokinase A,58.5 µM (active)
same,EC50,Streptococcus,12.4 µM (active)
Cc1ccccc1N=C(S)N1CCCC(c2nc3ccccc3[nH]2)C1 (centres undefined),EC50,[1],1.28 µM (active)
same,EC50,[2],> 60 µM (not active)
Cn1cc(-c2nc3cnc(Oc4ccccc4)nc3n(Cc3cccs3)c2=O)c2ccccc21,AC50,Cytochrome P450 1A2,3.16 µM (inconclusive)
Cc1ccc(-c2cc(C(=O)N3CCN(c4ccccc4O)CC3)c3ccccc3n2)cc1,EC50,[3],5.39 µM (active)
same,EC50,Streptokinase A,> 150 µM (not active)
same,EC50,Streptococcus,26.4 µM (active)
OC[C@@H](O)[C@@H](O)[C@@H](O)[C@@H](O)c1nc2cc(Cl)ccc2[nH]1,AC50,Cytochrome P450 1A2,6.31 µM (inconclusive)
CN/C(=N/c1cc(Cl)ccc1Cl)SC1CC(=O)N(c2ccc(C(=O)OC)cc2)C1=O (centres undefined),EC50,Streptokinase A,> 50 µM (not active)
Cc1cccc(C(=O)NCC(=O)N2CCOCC2)c1,EC50,[3],> 150 µM (not active)
same,EC50,Streptokinase A,> 150 µM (not active)
same,EC50,Streptococcus,> 150 µM (not active)
O=C(COc1ncnc2cc([N+](=O)[O-])ccc12)NC(=O)NC1CCCCC1,EC50,[1],0.122 µM (active)
same,EC50,[2],> 60 µM (not active)
COc1ccc(NC(=O)c2cc(-c3cc(C)cc(C)c3O)[nH]n2)cc1Cl,EC50,[3],2.41 µM (active)
same,EC50,Streptococcus,3.07 µM (active)
CCC(CC)NC(=O)c1oc2ccccc2c1COc1ccccc1,EC50,[3],9.43 µM (active)
same,EC50,Streptokinase A,10.6 µM (active)
same,EC50,Streptococcus,17 µM (active)
O=C(c1cccc(F)c1)N1CCC2(CCCN(c3ccccc3)C2)CC1,AC50,Cytochrome P450 1A2,15.8 µM (inconclusive)
O=C(/C=C(\c1ccc(Cl)cc1)n1cncn1)c1ccc(Cl)cc1,EC50,[1],0.475 µM (active)
same,EC50,[2],> 60 µM (not active)
Cc1ccccc1OCC(O)Cn1c(NCc2ccccc2)nc2c1c(=O)[nH]c(=O)n2C (centres undefined),AC50,Cytochrome P450 2C9,5.62 µM (inconclusive)
O=C(CC(C(=O)N1CCc2ccccc21)n1ccnc1)N1CCc2ccccc2C1 (centres undefined),EC50,[1],0.276 µM (active)
same,EC50,[2],11.5 µM (active)
COc1ccc(C2=NCC(CSc3nnc(-c4ccc5c(c4)OCO5)o3)S2)cc1 (centres undefined),EC50,[1],0.62 µM (active)
same,EC50,[2],> 60 µM (not active)
Cc1ccc(Cn2cccc(NC(=O)NC3CCCCC3)c2=O)cc1,AC50,Cytochrome P450 1A2,15.8 µM (inconclusive)
same,AC50,Cytochrome P450 2C9,2.51 µM (inconclusive)
COc1cc(/C=C/CN2CCN(Cc3ccc(C)o3)C(CCO)C2)ccc1O (centres undefined),IC50,[4],363 µM (active)
COc1ccc(OC)c2c(C)c(C)[nH]c12,IC50,[4],29.5 µM (active)
CCn1ncc(C(=O)Nc2cc(C)on2)c1C,AC50,Cytochrome P450 2C19; read-out: AC50,15.8 µM (inconclusive)
same,AC50,Cytochrome P450 1A2,15.8 µM (inconclusive)
COC(=O)[C@@]1(Cc2ccc(F)cc2)[C@H]2c3cc(C(=O)N4CCCC4)n(CCO)c3C[C@H]2CN1C(=O)c1ccccc1,AC50,Cytochrome P450 2C19; read-out: AC50,39.8 µM (inconclusive)
same,AC50,Cytochrome P450 1A2,25.1 µM (inconclusive)
CC1CC(C)(C)Nc2ccc(N=O)cc21 (centres undefined),EC50,[1],2.29 µM (active)
same,EC50,[2],3.13 µM (active)
COc1ccc2[nH]c(C(=O)N3CCCN(Cc4ccc(F)cc4)CC3)cc2c1,EC50,[1],0.23 µM (active)
same,EC50,[2],> 60 µM (not active)
Cc1cccc(CN2CCN(C(C)C(=O)NC(C)c3ccccc3)CC2)c1 (centres undefined),IC50,[4],84.2 µM (active)
Cc1ccc(-c2cc3nc(-c4ccc(Br)cc4)cc(N)n3n2)cc1,EC50,[3],1.59 µM (active)
same,EC50,Streptococcus,1.06 µM (active)
Nc1ccccc1Nc1cc(-c2cccc(Cl)c2)nn1-c1ccccc1,EC50,[1],4.26 µM (active)
same,EC50,[2],> 60 µM (inconclusive)
CS(=O)(=O)Nc1cccc(-c2nc(NCc3cccs3)c3ccccc3n2)c1,AC50,Cytochrome P450 2C9,1.26 µM (inconclusive)
O=c1c(-c2cc(F)cc(F)c2)nc2cnc(Oc3ccccc3)nc2n1C1CC1,AC50,Cytochrome P450 2C9,10 µM (inconclusive)
COC(=O)[C@@H]1[C@@H](O)[C@]2(O)c3ccccc3O[C@]2(c2ccccc2)[C@H]1c1ccccc1,AC50,Cytochrome P450 2C19; read-out: AC50,0.316 µM (inconclusive)
same,AC50,Cytochrome P450 2C9,0.0794 µM (inconclusive)
CCn1c(SCc2ccc(C)cc2)nnc1-c1nn(-c2ccccc2)ccc1=O,AC50,Cytochrome P450 2C19,inconclusive
CCN(CC)c1ccc(/C=C2/C(=O)NC(=O)N(Cc3ccco3)C2=O)cc1,IC50,[4],126 µM (active)
O=c1c(-c2cc(F)cc(F)c2)nc2cnc(N3CCOCC3)nc2n1CCc1ccccc1,AC50,Cytochrome P450 1A2,2.51 µM (inconclusive)
O=C(CN1CCN(c2ccc(O)cc2)CC1)Nc1ccccc1C(=O)NCCc1ccccc1,IC50,[4],41.5 µM (active)
Cc1ccc2cc3c(N)c(C(=O)N4CC(=O)Nc5ccccc54)sc3nc2c1,EC50,[5],< 0.1 µM (active)
same,EC50,[6],< 0.1 µM (active)
Cc1nc(N2CCCCC2)c2c(C)c(C(=O)Nc3cccc(C(F)(F)F)c3)sc2n1,EC50,[1],1.54 µM (active)
same,EC50,[2],> 60 µM (not active)
COc1ccc(N[C@@H]2CCN3C(=O)c4ccccc4[C@@H]3C[C@H]2O)cc1,IC50,[4],74.8 µM (active)
Cc1ccc(OC(=O)N2CCOCC2)cc1,AC50,Cytochrome P450 2C19; read-out: AC50,28.2 µM (inconclusive)
same,AC50,Cytochrome P450 1A2,17.8 µM (inconclusive)
same,AC50,Cytochrome P450 2C9,39.8 µM (inconclusive)
O=C(NC(=S)N1CCN(c2ccc(O)cc2)CC1)c1ccco1,IC50,[4],33.1 µM (active)
Cc1nc(C/C(=N\N)c2ccc(O)cc2O)cs1,IC50,[4],64 µM (active)
COc1cc(/C=C\c2ccc(OC)cc2OC)cc(OC)c1,AC50,Cytochrome P450 2C19,inconclusive
Cc1ccc(CONC(=O)/N=C/N(C)C)cc1,AC50,Cytochrome P450 1A2,28.2 µM (inconclusive)
O=C1c2ccccc2NC(c2ccc(O)cc2)N1/N=C/c1ccc(O)cc1 (centres undefined),IC50,[4],66.4 µM (active)
